“Also recorded” adds a separate entry of the source.
How the values were obtained:
[1] = test system: nineteen-month-old wild type (C57BL/6) mice; test: Y-maze in aged mice treated with inhibitors; format: in vivo, mouse; conditions: PO daily for 4 weeks, SC 5 mg/kg, CP 10 mg/kg
Method: A large Y-maze test assessed short-term memory of the familiarity of a specific context. Mice were brought to the experimental room for at least 30 min of acclimation to the experimental room conditions (dim lighting) prior to testing. For the initial training trial, the mouse was placed at the end of one arm of a large Y-maze designated “start arm” (arm length: 15 inches). The third arm of the maze was blocked off, allowing the mouse to explore two of the three arms freely (“start arm” and “familiar arm”) for 5 min. Each arm contained spatial cues. Three hours later, the mouse was placed back into the maze in the “start arm,” and allowed to explore all three arms with the third arm unblocked (“novel arm”). Movements in and out of each arm were tracked using automated tracking software (CleverSys or San Diego Instruments). Testing was performed under dim lighting, and the apparatus was cleaned with 70% ethanol between trials. The time spent and number of entireties into the “novel arm” and “familiar arm” were analyzed, as well as total distance travelled and velocity as measures of general locomotor activity.
Recombinant human LTA4H (Bio-techne, 4008-SN) was buffer-exchanged into sterile PBS and dosed at 4.6 ug/150 uL by tail vein i.v. injection. SC-57461A (Cayman Chemical, 423169-68) stock solution was prepared at 10 mg/mL in DMSO. […]

[2] = test system: hippocampal mRNA levels; test: qPCR of hippocampal mRNA levels in aged mice treated with inhibitors; format: in vivo, mouse; conditions: PO daily for 4 weeks, vs vehicle
Method: (§1) Brains were collected following saline perfusion and separated by mid-sagittal slice with one-half drop fixed in freshly prepared 4% PFA. PFA was changed to 30% sucrose 24-48 hours later. A second change to 30% sucrose occurred 24 hours later. The second half was dissected into hippocampus and cortex and then snap frozen on dry ice.
(§2) Brain tissue was sectioned or lysed and analyzed for markers of neurogenesis and aging by standard histological and biochemical methods, including qRT-PCR, Western blot, ELISA, and immunohistochemistry.
(§3) Nineteen-month-old (19 mo) wild type (WT; C57BL/6) mice were homogenized into five (5) groups by body weight, total distance travelled in the open field test, and average velocity in the open field test. Group 1 was administered 10% EtOH control PO daily for 4 weeks, Group 2 was administered 5 mg/kg of SC-57461A LTA4H dual inhibitor PO daily for 4 weeks; Group 3 was administered 10 mg/kg of CP-105,696 LTB4 receptor (BLTR) antagonist PO daily for 4 weeks, Group 4 was administered 10 mg/kg of Montelukast cysteinyl receptor (CysLTR) antagonist daily for 4 weeks, and Group 5 was administered 10 mg/kg of pinostilbene hydrate daily for 4 weeks. During Week 4 of treatment all groups were tested using open field, radial arm water maze, and Y-maze. During Week 5 animals were sacrificed, and tissues collected for histological and biochemical analysis.

[3] = test system: LTB4; test: Plasma LTB4 by ELISA in aged mice treated with inhibitors; format: in vivo, mouse; conditions: terminal plasma, PO daily for 4 weeks, vs vehicle
Method: On the final day of dosing, mice were deeply anesthetized with Avertin (250 mg/kg IP). The mice are subjected to cardiac puncture and blood samples were collected using syringes pre-filled with EDTA or heparin. Blood was either subjected to calcimycin stimulation assay or separated into plasma by centrifugation. Plasma from each mouse was aliquoted and stored at −80° C.
The concentration of mouse LTB4, the product of LTA4H enzyme hydrolysis activity, was measured using commercially-available LTB4 parameter assay kits (R&D Systems and Enzo). Blood samples were collected by cardiac puncture into pre-filled syringes with EDTA and injected into a microcentrifuge tube. The plasma was separated by centrifugation at 1000 g for 15 minutes at 4 C. Alternatively, blood was subjected to a calcimycin stimulation assay to increase the production of LTB4 prior to plasma collection. All plasma was stored at −80 C until measurement of LTB4 levels. LTB4 levels were measured from the plasma from 4-15 individual young (3 month, 3M) or aged (22.5 month, 22.5M) wild-type mice (WT; C57BL/6).
Nineteen-month-old (19 mo) wild type (WT; C57BL/6) mice were homogenized into five (5) groups by body weight, total distance travelled in the open field test, and average velocity in the open field test. […]

[4] = test system: nineteen-month-old wild type (C57BL/6) mice; test: Radial arm water maze in aged mice treated with inhibitors; format: in vivo, mouse
Method: The water maze (see, e.g. Alamed J, et al., Two-day radial-arm water maze learning and memory tasks; robust resolution of amyloid-related memory deficits in transgenic mice., Nat. Protoc., 1(4):1671-79 (2006)), was filled with water at least 24 hours prior to the test to equilibrate to 25° C. The water was dyed with white latex paint to make the animals visible for tracking and to allow for the use of a hidden platform. Eight distinct visual cues were placed at the end of each of eight arms of the RAWM inserts. On day 1 animals were subjected to 5 trials each with a visible platform and a 30-minute inter-trial interval. Animals had 60 seconds to reach the platform. […] The goal arm remained constant and a different start arm was randomly assigned for each of the 5 trials so that mouse started in every arm once except for the two arms directly across from the platform. The goal arm was switched after every two mice and balanced between all treatment groups. After each trial the mice were placed in an empty cage with blue pads and allowed to dry off under a heat lamp before being placed back into their home cage. Testing day was 48 hours after training, when animals were subjected to the same test of 5 trials each and a 30-minute inter-trial interval, but with a hidden platform Animals were scored for the number of errors (entry into a non-goal arm) and for latency to reach the platform. All trials were recorded using TopScan software (CleverSys, Inc., Reston, Va.).
Recombinant human LTA4H (Bio-techne, 4008-SN) was buffer-exchanged into sterile PBS and dosed at 4.6 ug/150 uL by tail vein i.v. injection. SC-57461A (Cayman Chemical, 423169-68) stock solution was prepared at 10 mg/mL in DMSO. Stock solution was diluted into sterile PBS immediately prior to p.o. dosing to a final concentration of 10% DMSO and 1 mg/mL SC-57461A. Mice were p.o. dosed at 5 mg/kg. CP-105,696 (Sigma, PZ0363), Pinostilbene hydrate (Sigma, SML0098), and Montelukast (Cayman Chemical, 10008318) stock solutions were prepared at 30 mg/mL in EtOH/Solutol. […]

[5] = test system: aquaporin 4 (AQP4) in the hippocampus; test: Aquaporin 4 (AQP4) immunofluorescence in the hippocampus of aged mice; format: in vivo, mouse; conditions: 10 mg/kg PO daily for 4 weeks
Method: as §1, §2, §3

[6] = target: T1, LTA4H (Homo sapiens, UniProt P09960); conditions: in vitro; Low et al., Sci Rep 2017; cited from earlier work
T1 sequence (P09960 1-611): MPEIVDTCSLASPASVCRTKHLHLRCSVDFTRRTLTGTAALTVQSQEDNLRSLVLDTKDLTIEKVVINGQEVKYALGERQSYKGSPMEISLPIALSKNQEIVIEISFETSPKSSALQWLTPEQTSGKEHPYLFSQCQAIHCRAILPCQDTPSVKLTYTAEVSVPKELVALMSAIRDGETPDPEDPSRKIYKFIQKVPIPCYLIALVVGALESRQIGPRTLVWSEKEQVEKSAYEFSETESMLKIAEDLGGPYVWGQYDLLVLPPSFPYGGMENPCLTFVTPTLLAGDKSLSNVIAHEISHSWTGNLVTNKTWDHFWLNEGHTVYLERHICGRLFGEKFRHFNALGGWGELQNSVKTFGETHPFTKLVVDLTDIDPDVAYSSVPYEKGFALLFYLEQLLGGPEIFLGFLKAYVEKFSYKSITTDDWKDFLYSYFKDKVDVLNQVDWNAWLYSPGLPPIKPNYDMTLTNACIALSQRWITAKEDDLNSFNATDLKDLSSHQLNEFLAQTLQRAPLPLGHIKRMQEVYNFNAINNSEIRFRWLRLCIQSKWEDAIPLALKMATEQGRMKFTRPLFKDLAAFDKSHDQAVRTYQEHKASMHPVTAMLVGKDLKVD

[7] = hidden platform testing phase, compared to vehicle mice

| SMILES | preference for the novel versus familiar arm in Y-maze (percentage of entries) [1] | IL-1β hippocampal mRNA expression (qPCR) [2] | IL-6 hippocampal mRNA expression (qPCR) [2] | TNFα hippocampal mRNA expression (qPCR) [2] | aqp4 hippocampal mRNA expression (qPCR) [2] | h2d1 hippocampal mRNA expression (qPCR) [2] | timp1 hippocampal mRNA expression (qPCR) [2] | plasma concentration of LTB4 measured by ELISA [3] | hippocampus-dependent spatial memory in radial arm water maze ([4]; aged mice, PO daily for 4 weeks, SC 5 mg/kg, Montelukast 10 mg/kg) | latency to find the platform in radial arm water maze [4, 7] | number of errors in radial arm water maze [4, 7] | fluorescence intensity of AQP4 in the hippocampus immediately surrounding blood vessels (vascular) [5] | integrated optical density of aquaporin 4 (AQP4) in the hippocampus ([5]; vs vehicle, hydrate, 10 mg/kg) | inhibition of hydrolase versus peptidase activity of LTA4H [6] |
| --- | --- | --- | --- | --- | --- | --- | --- | --- | --- | --- | --- | --- | --- | --- |
| O=C(O)C1(c2ccc3c(c2)OC[C@H](Cc2ccc(-c4ccccc4)cc2)[C@H]3O)CCCC1 [CP-105,696] | statistically significant preference for the novel arm |  |  |  |  |  |  |  |  |  |  |  |  |  |
| CN(CCCOc1ccc(Cc2ccccc2)cc1)CCC(=O)O.Cl [SC-57461A] | trend towards preference for the novel arm | significant decrease | significant decrease | significant decrease | significant decrease | significant decrease | trend towards a decrease | reduces | improvement | significantly shorter latency | fewer errors |  |  |  |
| COc1cc(O)cc(/C=C/c2ccc(O)cc2)c1 [pinostilbene hydrate] |  |  |  | significant decrease |  |  |  | did not detect a reduction |  |  |  | trend towards a decrease | trend towards a decrease; also recorded: significant reduction | only inhibit the hydrolase activity and not the peptidase activity |

Reference: patent US11344542B2, “Treatment of aging-associated disease with modulators of leukotriene A4 hydrolase” (Alkahest, Inc., priority 2018, dated 2022)
